In article PMC8604237 (Clinical and Translational Science, 2021):

How the values were obtained:
[1] = cited from earlier work
[2] = single dose, non-Japanese adults; cited from earlier work
[3] = tested on: patients with SBS; conditions: cited from earlier work
[4] = Population PK analysis of teduglutide; format: in vivo, human
[5] = tested on: patients with SBS; test: Time- and exposure-response analysis of prescribed PS; format: in vivo, human; conditions: for percent change from baseline of prescribed PS volume (maximum) / percent change from baseline of PS volume (maximum): 0.05 mg/kg
[6] = single and repeated doses up to 20 mg

## CC[C@H](C)[C@H](NC(=O)[C@H](Cc1ccccc1)NC(=O)[C@H](CC(=O)O)NC(=O)[C@H](CCCNC(=N)N)NC(=O)[C@H](C)NC(=O)[C@H](C)NC(=O)[C@H](CC(C)C)NC(=O)[C@H](CC(N)=O)NC(=O)[C@H](CC(=O)O)NC(=O)[C@H](CC(C)C)NC(=O)[C@@H](NC(=O)[C@@H](NC(=O)[C@H](CC(N)=O)NC(=O)[C@H](CCSC)NC(=O)[C@H](CCC(=O)O)NC(=O)[C@H](CC(=O)O)NC(=O)[C@H](CO)NC(=O)[C@H](Cc1ccccc1)NC(=O)[C@H](CO)NC(=O)CNC(=O)[C@H](CC(=O)O)NC(=O)CNC(=O)[C@@H](N)Cc1c[nH]cn1)[C@@H](C)O)[C@@H](C)CC)C(=O)N[C@@H](CC(N)=O)C(=O)N[C@@H](Cc1c[nH]c2ccccc12)C(=O)N[C@@H](CC(C)C)C(=O)N[C@H](C(=O)N[C@@H](CCC(N)=O)C(=O)N[C@H](C(=O)N[C@@H](CCCCN)C(=O)N[C@H](C(=O)N[C@H](C(=O)N[C@@H](CC(=O)O)C(=O)O)[C@@H](C)O)[C@@H](C)CC)[C@@H](C)O)[C@@H](C)CC [teduglutide]
[1]
  terminal elimination half-life: ~ 2 h
[1]; s.c. injection
  time of maximum plasma levels after dosing: 3 to 5 h
[1]; [6]
  accumulation: no accumulation
  rate and extent of absorption vs dose: dose‐proportional
[2]
  AUCinf in individuals with ESRD vs healthy volunteers: more than twofold higher
  C max in individuals with ESRD vs healthy volunteers: more than twofold higher
[3]; 0.05 mg/kg, adult patients with SBS, 24-week study
  incidence of adverse events leading to discontinuation of treatment: less than 5%
[3]; daily s.c. 0.05 mg/kg, patients with SBS, vs. 30% placebo, p = 0.002
  responder rate (≥20% reduction from baseline in the volume of PS): 63%
[4]; covariate analysis
  impact of race (Japanese vs. non-Japanese) on CL/F: did not have an impact
  impact of race (Japanese vs. non-Japanese) on K a: did not have an impact
  impact of race (Japanese vs. non-Japanese) on V/F: did not have an impact
[4]; final PopPK model
  CL/F in female subjects, lower relative to male subjects: 7%
  V/F of typical subject of 0.38 years relative to typical subject of 34 years: fourfold higher
[4]; final PopPK model, corresponds to 0.299 h
  absorption lag time: 17.9 min
[4]; observed individual concentrations, adult and pediatric patients with SBS, s.c.
  time of peak concentrations after dosing: 3 to 5 h
[4]; patients with SBS, final PopPK model
  terminal elimination half-life (t 1/2), population estimate: 1.47 h
[4]; s.c. 0.05 mg/kg, SBS
  mean C max,ss in Japanese adult patients, higher than in non-Japanese adult patients: 23%
  mean C max,ss in Japanese pediatric patients, difference from non-Japanese pediatric patients: ≤ 20%
[4]; suggested by K a 0.330 h^−1 and lag time 17.9 min
  time to total absorption after dosing: ~10 h
[5]; Japanese pediatric patients with SBS
  percent change from baseline of prescribed PS volume (maximum): −29.7%
[5]; adult Japanese patients with SBS
  percent change from baseline of PS volume (maximum): −62.6%
[5]; adult non-Japanese patients with SBS
  percent change from baseline of PS volume (maximum): −54.9%
[5]; non-Japanese pediatric patients with SBS
  percent change from baseline of prescribed PS volume (maximum): −74.7%
[5]; daily dosing of 0.05 mg/kg
  maximum reduction in PS: 5.76 L/week
[5]; final time- and exposure-response model, change from baseline in prescribed PS volume
  E max of teduglutide on prescribed PS volume: −5.76 L/week
